≈ marks a conversion by molar mass, not a printed value.

These results are taken from ChEMBL document CHEMBL1135031, “Sequestration of bacterial lipopolysaccharide by bis(Args) gemini compounds” (Bioorg Med Chem Lett, 2002).

The subject of series [1] is J774.A1. In words: Inhibition of TNF-a production by J774.A1 cells stimulated for 18 hr with Escherichia coli O111:B4 LPS (25 ng/mL). Format: functional. The settings on record: Mus musculus, J774.A1, 18 h; read-out: ED50 (the source's name).
For series [2], the system named is Mus musculus. In words: Tested for protective effect in D-galactosamine (800 mg/kg) sensitized mice injected with lipopolysaccharides at 40 ng/mouse and compound dose of 10 ug/mouse (ip); 9/10 (dead/ Total mice). Format: functional.
The test system of series [3] is Mus musculus. Briefly: Tested for protective effect in D-galactosamine (800 mg/kg) sensitized mice injected with lipopolysaccharides at 20 ng/mouse and compound dose of 40 ug/mouse (ip); 0/10 (dead/ Total mice). Format: functional.
Series [4] has as its system Mus musculus. Briefly: Tested for protective effect in D-galactosamine (800 mg/kg) sensitized mice injected with lipopolysaccharides at 40 ng/mouse and compound dose of 0 ug/mouse (ip); 5/5 (dead/ Total mice). Format: functional.
In series [5] the test system is Mus musculus. In words: Tested for protective effect in D-galactosamine (800 mg/kg) sensitized mice injected with lipopolysaccharides at 0 ng/mouse and compound dose of 10 ug/mouse (ip); 0/5 (dead/ Total mice). Format: functional.
Series [6] can be described thus: Dose that resulted in 100% lethality in murine model of CF-1 mice. Format: ADME. The settings on record: mouse, in vivo.
Series [7] has as its system Mus musculus. Briefly: Tested for protective effect in D-galactosamine (800 mg/kg) sensitized mice injected with lipopolysaccharides at 40 ng/mouse and compound dose of 40 ug/mouse (ip); 6/10 (dead/ Total mice). Format: functional.
For series [8], the system named is Mus musculus. Briefly: Tested for protective effect in D-galactosamine (800 mg/kg) sensitized mice injected with lipopolysaccharides at 20 ng/mouse and compound dose of 0 ug/mouse (ip); 5/5 (dead/ Total mice). Format: functional.
In series [9] the test system is Mus musculus. Briefly: Tested for protective effect in D-galactosamine (800 mg/kg) sensitized mice injected with lipopolysaccharides at 20 ng/mouse and compound dose of 10 ug/mouse (ip); 7/10 (dead/ Total mice). Format: functional.
Series [10] deals with Mus musculus. Briefly: Tested for protective effect in D-galactosamine (800 mg/kg) sensitized mice injected with lipopolysaccharides at 0 ng/mouse and compound dose of 40 ug/mouse (ip); 0/5 (dead/ Total mice). Format: functional.

`CCCCCCCCCCCC(=O)N[C@@H](CCCN=C(N)N)C(=O)NCCCCCCNC(=O)[C@H](CCCN=C(N)N)NC(=O)CCCCCCCCCCC`: in series [1], the EC50 is 1.4 µg/mL (≈ 1.77 µM).
Take `CCCCCCCCCCCC(=O)N[C@@H](CCCN=C(N)N)C(=O)NCCCCCCCCCNC(=O)[C@H](CCCN=C(N)N)NC(=O)CCCCCCCCCCC`: the Lethality in series [2] was 9; in series [3], 0; in series [4] it was 5; in series [5], 0; in series [7], 6; in [8], 5. The Lethality in [9] is recorded as 7; in [10], 0. In addition, the Lethal dose in [6] is 10 ng/mL. Further, in series [1], the EC50 turned out to be 2.5 µg/mL (≈ 2.99 µM).
